Where “and” joins values, the source holds several entries; their conditions need not be identical. Equal entries are not always repeated. Entries after “also recorded” stand apart in the source; their conditions may differ. Where two headings read alike, the source gives them in different places.
How the values were obtained:
[1] = target: T1, mGlu3 (Homo sapiens, UniProt Q14832); assay: mGlu3 GIRK assay; type: cell-based
[2] = target: mGlu2 (Homo sapiens, UniProt Q14416); assay: mGlu2 GIRK assay; type: cell-based; details: mGlu3 NAM potency versus mGlu2 GIRK
Sequence of mGlu2 (Q14416 19-872): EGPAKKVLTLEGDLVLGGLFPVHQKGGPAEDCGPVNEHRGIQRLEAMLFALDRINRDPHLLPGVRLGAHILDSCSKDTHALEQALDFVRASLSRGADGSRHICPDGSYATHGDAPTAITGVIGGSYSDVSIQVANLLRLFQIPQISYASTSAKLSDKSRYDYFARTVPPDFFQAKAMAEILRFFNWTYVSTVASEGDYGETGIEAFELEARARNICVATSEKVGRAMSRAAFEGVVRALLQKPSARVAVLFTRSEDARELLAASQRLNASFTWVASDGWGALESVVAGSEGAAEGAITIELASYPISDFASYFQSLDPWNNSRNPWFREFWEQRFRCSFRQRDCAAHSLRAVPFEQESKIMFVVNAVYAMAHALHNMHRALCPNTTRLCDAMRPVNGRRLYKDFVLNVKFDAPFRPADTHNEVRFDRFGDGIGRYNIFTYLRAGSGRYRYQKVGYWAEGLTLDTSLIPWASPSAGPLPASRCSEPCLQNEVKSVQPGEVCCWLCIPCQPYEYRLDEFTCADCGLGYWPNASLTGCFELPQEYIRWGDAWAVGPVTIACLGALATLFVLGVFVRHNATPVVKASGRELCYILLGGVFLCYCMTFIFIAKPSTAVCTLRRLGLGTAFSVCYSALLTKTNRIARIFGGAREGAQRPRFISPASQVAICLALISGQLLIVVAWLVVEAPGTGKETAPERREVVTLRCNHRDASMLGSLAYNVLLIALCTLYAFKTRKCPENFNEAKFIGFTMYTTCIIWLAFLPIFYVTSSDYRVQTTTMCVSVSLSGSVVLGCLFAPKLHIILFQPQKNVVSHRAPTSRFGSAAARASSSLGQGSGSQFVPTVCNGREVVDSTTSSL

[3] = target: mGlu5 (Homo sapiens, UniProt P41594); assay: mGlu5 calcium assay; type: cell-based
Sequence of mGlu5 (P41594 21-1212): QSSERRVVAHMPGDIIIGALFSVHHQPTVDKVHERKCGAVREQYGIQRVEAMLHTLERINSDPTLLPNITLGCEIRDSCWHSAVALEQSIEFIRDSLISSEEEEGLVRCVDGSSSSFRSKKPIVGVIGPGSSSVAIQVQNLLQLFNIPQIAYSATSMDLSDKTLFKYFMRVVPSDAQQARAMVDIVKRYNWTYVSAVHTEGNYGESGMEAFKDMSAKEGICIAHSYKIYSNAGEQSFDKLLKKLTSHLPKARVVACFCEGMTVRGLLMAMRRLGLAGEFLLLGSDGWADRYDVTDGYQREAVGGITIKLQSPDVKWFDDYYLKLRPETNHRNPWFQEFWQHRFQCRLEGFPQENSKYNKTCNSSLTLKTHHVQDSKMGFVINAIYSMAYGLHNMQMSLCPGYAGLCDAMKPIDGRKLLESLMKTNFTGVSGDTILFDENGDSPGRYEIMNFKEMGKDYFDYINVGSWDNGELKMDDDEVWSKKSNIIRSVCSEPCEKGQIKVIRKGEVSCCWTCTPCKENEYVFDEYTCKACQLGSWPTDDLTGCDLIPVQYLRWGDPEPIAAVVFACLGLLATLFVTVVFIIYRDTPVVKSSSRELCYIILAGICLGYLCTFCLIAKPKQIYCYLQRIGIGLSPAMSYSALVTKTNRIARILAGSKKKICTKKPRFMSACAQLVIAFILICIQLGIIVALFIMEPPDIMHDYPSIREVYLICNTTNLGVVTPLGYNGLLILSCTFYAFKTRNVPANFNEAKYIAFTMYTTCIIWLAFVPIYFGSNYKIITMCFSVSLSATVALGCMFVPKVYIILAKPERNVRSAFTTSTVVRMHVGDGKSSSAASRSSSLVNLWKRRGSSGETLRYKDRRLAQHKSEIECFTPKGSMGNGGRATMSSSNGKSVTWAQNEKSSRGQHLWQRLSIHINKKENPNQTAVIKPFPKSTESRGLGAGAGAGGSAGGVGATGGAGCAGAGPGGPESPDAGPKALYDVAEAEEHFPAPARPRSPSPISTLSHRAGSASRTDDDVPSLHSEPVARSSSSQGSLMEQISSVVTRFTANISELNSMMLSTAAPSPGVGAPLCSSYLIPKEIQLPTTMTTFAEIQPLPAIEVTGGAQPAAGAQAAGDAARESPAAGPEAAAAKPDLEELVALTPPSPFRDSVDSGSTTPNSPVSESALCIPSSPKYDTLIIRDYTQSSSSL

[4] = target: T1, mGlu3; assay: mGlu3 calcium assay, mGlu3 co-expressed with promiscuous G protein Gα15; type: cell-based
[5] = target: T1, mGlu3; assay: Schild analysis, glutamate concentration-response in mGlu3 GIRK; type: cell-based; details: rightward shift and decreased maximal efficacy of glutamate
[6] = test system: 68 GPCRs, ion channels and transporters; assay: Lead Profiling Screen at Ricerca, radioligand binding assays; details: screened at 10 μM, 68 targets
[7] = Intrinsic clearance in rat liver microsomes; type: in vitro ADME
[8] = Intrinsic clearance in human liver microsomes; type: in vitro ADME
[9] = Metabolite ID in rat liver microsomes; type: in vitro ADME
[10] = Metabolite ID in human liver microsomes; type: in vitro ADME
[11] = IP plasma:brain level; type: in vivo, rat; details: 10 mg/kg IP
[12] = test system: six other mGlu subtypes; assay: Activity at the six other mGlu subtypes; type: cell-based
[13] = 10% Tween80 in 0.5% methylcellulose

T1 sequence (Q14832 23-879): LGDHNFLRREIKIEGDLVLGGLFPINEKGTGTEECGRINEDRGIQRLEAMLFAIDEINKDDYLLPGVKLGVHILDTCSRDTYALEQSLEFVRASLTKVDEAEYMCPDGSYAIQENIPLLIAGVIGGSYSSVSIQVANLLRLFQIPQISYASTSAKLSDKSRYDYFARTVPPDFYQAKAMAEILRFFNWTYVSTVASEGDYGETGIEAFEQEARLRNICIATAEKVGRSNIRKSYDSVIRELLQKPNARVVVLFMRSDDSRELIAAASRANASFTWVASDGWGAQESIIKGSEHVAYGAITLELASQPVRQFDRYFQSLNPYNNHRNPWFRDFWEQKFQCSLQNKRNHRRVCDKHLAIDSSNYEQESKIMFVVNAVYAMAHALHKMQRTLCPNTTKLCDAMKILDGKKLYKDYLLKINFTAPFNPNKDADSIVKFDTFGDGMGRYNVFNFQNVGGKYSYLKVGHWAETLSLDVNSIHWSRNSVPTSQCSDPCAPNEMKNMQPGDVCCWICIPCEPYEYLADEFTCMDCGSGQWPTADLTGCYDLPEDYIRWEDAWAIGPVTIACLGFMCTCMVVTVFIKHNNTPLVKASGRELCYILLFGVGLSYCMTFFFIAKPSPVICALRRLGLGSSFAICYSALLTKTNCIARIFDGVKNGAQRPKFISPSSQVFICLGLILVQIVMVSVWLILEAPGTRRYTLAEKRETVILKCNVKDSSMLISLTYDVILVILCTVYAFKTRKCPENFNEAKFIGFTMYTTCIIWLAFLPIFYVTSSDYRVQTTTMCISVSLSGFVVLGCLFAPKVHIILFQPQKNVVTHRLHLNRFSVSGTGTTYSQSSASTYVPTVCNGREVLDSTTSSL

COc1ccc(C#Cc2ccc(C(=O)N3CCC[C@@H](CO)C3)cc2)cc1 [Compound 11]
block of the glutamate EC80 (in words) ([1]; mGlu3 GIRK assay): full blockade
potency ratio of 11 over 12 ([1]; mGlu3 GIRK assay): 2 fold
selectivity versus mGlu2 [2]: > 15 fold
activity/selectivity against mGlu5 (in words) [3]: complete specificity versus mGlu5
activity/selectivity against mGlu5 (in words) ([3]; listed as ML289): inactive; also recorded: highly selective versus mGlu5
potentiation of an EC20 concentration of glutamate at mGlu5 ([3]; mGlu5 calcium assay, PAM mode): inactive
inhibition of an EC80 concentration of glutamate at mGlu5 ([3]; mGlu5 calcium assay, antagonist mode): inactive
% Glu Min [4]: 2.1±0.3%
mechanism of mGlu3 antagonism [5]: non-competitive (allosteric) mechanism of action
inhibition of off-targets [6]: ≤ 25%
CLint scaled [7]: 240 mL/min/kg
CLint scaled [8]: 572 mL/min/kg
principle biotransformation pathway [9]: P450-mediated O-demethylation
principle biotransformation pathway [10]: P450-mediated O-demethylation
brain level [11, 13]: 16.3 µM
plasma level [11, 13]: 9.7 µM
free concentration in rat brain ([11]; based on brain homogenate binding): ~ 163 nM

O=C(c1ccc(C#Cc2ccccc2)cc1)N1CCC(O)CC1 [Compound 3]
IC50 ([1]; mGlu3 IC50, mGlu3 GIRK assay): ~10 µM and > 10 µM
activity at the six other mGlu subtypes [12]: no activity

COc1ccc(C#Cc2ccc(C(=O)N3CCCC(CO)C3)cc2)cc1 (stereo not drawn) [Compound 10e]
block of the glutamate EC80 (in words) ([1]; mGlu3 GIRK assay): full block

COc1ccc(C#Cc2ccc(C(=O)N3CCC[C@H](CO)C3)cc2)cc1 [Compound 12]
block of the glutamate EC80 (in words) ([1]; mGlu3 GIRK assay): full blockade
